For four compounds, Activity results are on record in ChEMBL document CHEMBL2074562, “Substrate specificity of the rat liver Na(+)-bile salt cotransporter in Xenopus laevis oocytes and in CHO cells” (Am J Physiol, 1998).

Common to all, as to format: functional, cell-based
Common to all, as to settings: hamster

Data set [1] deals with T1, Hepatic sodium/bile acid cotransporter (Rattus norvegicus, UniProt P26435).
T1 sequence (P26435 whole entry): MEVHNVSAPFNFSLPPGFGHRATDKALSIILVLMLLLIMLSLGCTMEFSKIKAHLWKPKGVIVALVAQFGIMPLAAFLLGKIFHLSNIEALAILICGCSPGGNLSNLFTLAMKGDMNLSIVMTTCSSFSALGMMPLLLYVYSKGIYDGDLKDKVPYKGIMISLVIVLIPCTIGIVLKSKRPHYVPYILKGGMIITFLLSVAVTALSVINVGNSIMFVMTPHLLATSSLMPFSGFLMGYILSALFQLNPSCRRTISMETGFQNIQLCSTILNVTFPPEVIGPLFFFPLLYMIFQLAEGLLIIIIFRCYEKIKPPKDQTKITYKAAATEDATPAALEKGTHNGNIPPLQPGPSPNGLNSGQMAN
Put plainly: TP_TRANSPORTER: inhibition of Taurocholate uptake (Taurocholate: 2.5 uM, Testosterone: 200 uM) in Ntcp-expressing CHO cells.

In data set [2] the target is T1, Hepatic sodium/bile acid cotransporter. Put plainly: TP_TRANSPORTER: inhibition of Taurocholate uptake (Taurocholate: 2.5 uM, Progesterone: 200 uM) in Ntcp-expressing CHO cells.
For data set [3] the target is unchanged. Briefly: TP_TRANSPORTER: inhibition of Taurocholate uptake (Taurocholate: 2.5 uM, E1S: 200 uM) in Ntcp-expressing CHO cells.
Data set [4] shares this target. Put plainly: TP_TRANSPORTER: inhibition of Taurocholate uptake (Taurocholate: 2.5 uM, Estradiol-3-sulfate: 68 uM) in Ntcp-expressing CHO cells.

For the compound `C[C@]12CC[C@H]3[C@@H](CCC4=CC(=O)CC[C@@]43C)[C@@H]1CC[C@@H]2O` [TESTOSTERONE], in data set [1], the Activity entry was “inhibitor [(at a rough estmate) 50 % of control]”.

Consider `CC(=O)[C@H]1CC[C@H]2[C@@H]3CCC4=CC(=O)CC[C@]4(C)[C@H]3CC[C@]12C` [PROGESTERONE], for which the Activity result in data set [2] was “inhibitor [(at a rough estmate) 70 % of control]”.

`C[C@]12CC[C@@H]3c4ccc(OS(=O)(=O)O)cc4CC[C@H]3[C@@H]1CCC2=O` [ESTRONE SULFURIC ACID]: the Activity entry in data set [3] is “inhibitor [(at a rough estmate) 30 % of control]”.

Regarding `C[C@]12CC[C@@H]3c4ccc(OS(=O)(=O)O)cc4CC[C@H]3[C@@H]1CC[C@@H]2O`, in data set [4], the Activity entry is “inhibitor [(at a rough estmate) 5 % of control]”.
